According to patent EP4562004B1, “NOVEL 7-SUBSTITUTED INDOLE SULFONAMIDE DERIVATIVES” (F. Hoffmann-La Roche AG, priority 2022, dated 2024):

Target: human GPR17 short isoform (Homo sapiens, UniProt Q13304)
Assay: GPR17 cAMP assay (antagonist mode, TR-FRET cAMP detection)
Format: cell-based
Settings: CHO-K1 cells stably expressing human GPR17 short isoform; with EC80 concentration of agonist MDL29,951, IBMX 0.5mM, forskolin 15µM; normalized to reference antagonist; read-out: hGPR17 cAMP IC50
Method in brief: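 CHO-K1 cells stably expressing untagged human GPR17 short isoform, preincubated with compounds in HBSS/HEPES/0.1% BSA pH 7.4 plus EC80 MDL29,951 and 0.5 mM IBMX; forskolin (15 µM final) added after 5 min, then 30 min at room temperature. cAMP read by TR-FRET after 90 min lysis; normalized to reference antagonist maximum, sigmoidal fit.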

Chain of human GPR17 short isoform (Q13304 29-367): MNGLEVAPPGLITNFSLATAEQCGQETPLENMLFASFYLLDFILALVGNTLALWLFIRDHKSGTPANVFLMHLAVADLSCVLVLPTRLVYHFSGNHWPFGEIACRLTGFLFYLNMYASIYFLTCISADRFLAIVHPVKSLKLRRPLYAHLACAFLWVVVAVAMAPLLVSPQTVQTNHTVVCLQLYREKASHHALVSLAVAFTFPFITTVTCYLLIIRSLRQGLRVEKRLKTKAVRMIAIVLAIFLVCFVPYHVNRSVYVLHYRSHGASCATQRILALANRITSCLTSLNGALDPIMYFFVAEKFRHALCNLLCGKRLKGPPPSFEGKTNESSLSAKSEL

IC50 [nM] | Structure (SMILES)
108 | COc1nc(NS(=O)(=O)c2c[nH]c3c(-n4cccn4)c(C(F)F)ccc23)nc(OC)c1OC(F)F [Example 49, N-[5-(difluoromethoxy)-4,6-dimethoxy-pyrimidin-2-yl]-6-(difluoromethyl)-7-pyrazol-1-yl-1H-indole-3-sulfonamide]
69 | COc1nc(NS(=O)(=O)c2c[nH]c3c(-n4nccn4)c(F)ccc23)nc(OC)c1CC(F)F [Example 32, N-[5-(2,2-difluoroethyl)-4,6-dimethoxy-pyrimidin-2-yl]-6-fluoro-7-(triazol-2-yl)-1H-indole-3-sulfonamide]
